We go through twelve substances from patent publication US20060194268A1, “Method for measuring spinorphin” (priority 2005, published 2006).

In data set [1] the target is spinorphin rabbit antibody. As to the kind of experiment: Competitive enzyme immunoassay, cross reactivity of spinorphin analogues. The data set is classed as binding. The note with it: for IC50: competition with spinorphin immobilized on plate for spinorphin rabbit antibody; for Cross reactivity: ratio of spinorphin relative to IC50; for detection by the method of the present invention (reaction with spinorphin antibody): analogue as competitive compound for immobilized spinorphin.

The next data set can be described thus: in vitro. The note with it: bovine, cerebrospinal or other body fluid.

No end group written: not given here. Bounds are passed on as bounds.

Experimental for in vitro: A test was carried out to confirm whether the activity of spinorphin could be retained through the period from the step (B) to the step (E). Spinorphin (1 μg/mL) in TBS was dissolved in bovine cerebrospinal fluid. The cerebrospinal fluid was allowed to stand at room temperature for various time periods. The reaction was stopped, and the amount of spinorphin was measured according to the method mentioned in the above (2).

The term IC50 denotes the midpoint of a concentration-inhibition curve. A higher IC50 goes with weaker potency. For VVYPWT, in data set [1], the 50% inhibitory concentration (IC50) was determined as 1.6 ± 5 µg/mL and the Cross reactivity worked out at 0.0004.

As a reminder, the fraction remaining is the share of the starting amount still present when the sample was taken. With “LVVYPWT [Spinorphin, Leu-Val-Val-Tyr-Pro-Trp-Thr]”, in data set [1], the IC50 was 0.00064 ± 0.00061 µg/mL and the Cross reactivity is recorded as 1. In the data set “in vitro”, this substance had a share remaining at 1 h, 1 μg/mL of 98.8 ± 0.98%.

In the case of YPW, the “detection by the method of the present invention (reaction with spinorphin antibody)” value (“detection by the method” for short) in data set [1] was “could not be detected”.

As for VYPWT, in data set [1], the IC50 is over 10 µg/mL and the Cross reactivity is recorded as <6.4 × 10^−5.

As to LVVYP [spinorphin analogue], the “detection by the method” value in data set [1] is “could not be detected”.

As to LVVYPW [spinorphin analogue], the “detection by the method” value in data set [1] is recorded as “could not be detected”.

On to VYP, for which, in data set [1], the “detection by the method” value was “could not be detected”.

Regarding VYPW [spinorphin analogue], the “detection by the method” value in data set [1] is recorded as “could not be detected”.

In the case of YPWT [hemorphin-4], the “detection by the method” value in data set [1] is given as “could not be detected”.

In the case of VVYP [spinorphin analogue], in data set [1], the “detection by the method” value is “could not be detected”.

Turning to Pro-Trp-Thr [PWT], the “detection by the method” value in data set [1] is “could not be detected”.

Regarding VVYPW [tynorphin], the “detection by the method” value in data set [1] is recorded as “could not be detected”.
